Experimental findings from patent US8067408B2, “Dual pharmacophores—PDE4-muscarinic antagonistics” (priority 2008, dated 2011) are described below.

Structures are written as SMILES. Structures can show the parent of a compound that is named as a salt.

As usually defined, the melting point is the temperature, or range, at which the solid turns liquid.

`CCc1nc2c(cnn2CC)c(NC2CCOCC2)c1CNC(=O)c1cccc(C(=O)NCc2ccc(C)c(-c3cccc(CN4CCNCC4)c3)c2)c1` [Example 192, N-{[1,6-Diethyl-4-(tetrahydro-2H-pyran-4-ylamino)-1H-pyrazolo[3,4-b]pyridin-5-yl]methyl}-N′-{[6-methyl-3′-(1-piperazinylmethyl)-3-biphenylyl]methyl}-1,3-benzenedicarboxamide]: the melting point is 135 to 138 °C.

Regarding `CCc1nc2c(cnn2CC)c(NC2CCOCC2)c1CNC(=O)c1cccc(C(=O)NCc2ccc(OC)c(-c3cccc(CN4CCN[C@@H](C)C4)c3)c2)c1` [Example 213, N-{[1,6-Diethyl-4-(tetrahydro-2H-pyran-4-ylamino)-1H-pyrazolo[3,4-b]pyridin-5-yl]methyl}-N′-[(6-(methyloxy)-3′-{[(3S)-3-methyl-1-piperazinyl]methyl}-3-biphenylyl)methyl]-1,3-benzenedicarboxamide], the melting point lay within 110 to 112 °C. On to `CCc1nc2c(cnn2CC)c(NC2CCOCC2)c1CNC(=O)c1cccc(C(=O)NCc2cc(Cl)cc(-c3cccc(CN4CCNCC4)c3)c2)c1` [Example 424, N-{[5-Chloro-3′-(1-piperazinylmethyl)-3-biphenylyl]methyl}-N′-{[1,6-diethyl-4-(tetrahydro-2H-pyran-4-ylamino)-1H-pyrazolo[3,4-b]pyridin-5-yl]methyl}-1,3-benzenedicarboxamide], for which the melting point was 119 to 122 °C. In turn, `CCc1nc2c(cnn2CC)c(NC2CCOCC2)c1CNC(=O)c1cccc(C(=O)NCc2ccc(F)c(-c3cccc(CN4CCN[C@@H](C)C4)c3)c2)c1` (as salt: TFA) [Example 205, N-{[1,6-Diethyl-4-(tetrahydro-2H-pyran-4-ylamino)-1H-pyrazolo[3,4-b]pyridin-5-yl]methyl}-N′-[(6-fluoro-3′-{[(3S)-3-methyl-1-piperazinyl]methyl}-3-biphenylyl)methyl]-1,3-benzenedicarboxamide] gave a melting point of 100 to 113 °C.

With `CCc1nc2c(cnn2CC)c(NC2CCOCC2)c1CNC(=O)c1cccc(C(=O)NCc2ccc(Cl)c(-c3cccc(CN4CCCNCC4)c3)c2)c1` [Example 221, N-{[6-Chloro-3′-(hexahydro-1H-1,4-diazepin-1-ylmethyl)-3-biphenylyl]methyl}-N′-{[1,6-diethyl-4-(tetrahydro-2H-pyran-4-ylamino)-1H-pyrazolo[3,4-b]pyridin-5-yl]methyl}-1,3-benzenedicarboxamide], the melting point lay in the range of 116 to 119 °C.

On to `CCc1nc2c(cnn2CC)c(NC2CCOCC2)c1CNC(=O)c1cc(C)cc(C(=O)NCc2ccc(OC)c(-c3cccc(CN4CCN[C@@H](C)C4)c3)c2)c1` [Example 423, N-{[1,6-Diethyl-4-(tetrahydro-2H-pyran-4-ylamino)-1H-pyrazolo[3,4-b]pyridin-5-yl]methyl}-5-methyl-N′-[(6-(methyloxy)-3′-{[(3S)-3-methyl-1-piperazinyl]methyl}-3-biphenylyl)methyl]-1,3-benzenedicarboxamide], for which the melting point was in the range of 121 to 123 °C. Take `CCc1nc2c(cnn2CC)c(NC2CCOCC2)c1CNC(=O)c1cccc(C(=O)NCc2cc(Cl)cc(-c3cccc(CN4CCN[C@@H](C)C4)c3)c2)c1` [Example 224, N-[(5-Chloro-3′-{[(3S)-3-methyl-1-piperazinyl]methyl}-3-biphenylyl)methyl]-N′-{[1,6-diethyl-4-(tetrahydro-2H-pyran-4-ylamino)-1H-pyrazolo[3,4-b]pyridin-5-yl]methyl}-1,3-benzenedicarboxamide]: the melting point was 119 to 121 °C. Regarding `CCc1nc2c(cnn2CC)c(NC2CCOCC2)c1CNC(=O)c1cccc(C(=O)NCc2ccc(C)c(-c3cccc(CN4CCCNCC4)c3)c2)c1` [Example 196, N-{[1,6-Diethyl-4-(tetrahydro-2H-pyran-4-ylamino)-1H-pyrazolo[3,4-b]pyridin-5-yl]methyl}-N′-{[3′-(hexahydro-1H-1,4-diazepin-1-ylmethyl)-6-methyl-3-biphenylyl]methyl}-1,3-benzenedicarboxamide], the melting point lay within 118 to 120 °C. The molecule `CCc1nc2c(cnn2CC)c(NC2CCOCC2)c1CNC(=O)c1cccc(C(=O)NCc2ccc(C)c(-c3cccc(CN4CCN[C@@H](C)C4)c3)c2)c1` [Example 212, N-{[1,6-Diethyl-4-(tetrahydro-2H-pyran-4-ylamino)-1H-pyrazolo[3,4-b]pyridin-5-yl]methyl}-N′-[(6-methyl-3′-{[(3S)-3-methyl-1-piperazinyl]methyl}-3-biphenylyl)methyl]-1,3-benzenedicarboxamide] displayed a melting point of 115 to 118 °C.

`CCc1nc2c(cnn2CC)c(NC2CCOCC2)c1CNC(=O)c1cccc(C(=O)NCc2ccc(Cl)c(-c3cccc(CN4C[C@@H](C)N[C@@H](C)C4)c3)c2)c1` [Example 220, N-[(6-Chloro-3′-{[(3R,5S)-3,5-dimethyl-1-piperazinyl]methyl}-3-biphenylyl)methyl]-N′-{[1,6-diethyl-4-(tetrahydro-2H-pyran-4-ylamino)-1H-pyrazolo[3,4-b]pyridin-5-yl]methyl}-1,3-benzenedicarboxamide] returned a melting point of 121 to 124 °C. The molecule `CCc1nc2c(cnn2CC)c(NC2CCOCC2)c1CNC(=O)c1cccc(C(=O)NCc2ccc(Cl)c(-c3cccc(CN4CCNCC4)c3)c2)c1` [Example 222, N-{[6-Chloro-3′-(1-piperazinylmethyl)-3-biphenylyl]methyl}-N′-{[1,6-diethyl-4-(tetrahydro-2H-pyran-4-ylamino)-1H-pyrazolo[3,4-b]pyridin-5-yl]methyl}-1,3-benzenedicarboxamide] returned a melting point of 127 to 130 °C. `CCc1nc2c(cnn2CC)c(NC2CCOCC2)c1CNC(=O)c1cc(C)cc(C(=O)NCc2ccc(F)c(-c3cccc(C=O)c3)c2)c1` displayed a melting point of 107 to 110 °C.

With `CCc1nc2c(cnn2CC)c(NC2CCOCC2)c1CNC(=O)c1cccc(C(=O)NCc2ccc(OC)c(-c3cccc(CN4CCCNCC4)c3)c2)c1` [Example 195, N-{[1,6-Diethyl-4-(tetrahydro-2H-pyran-4-ylamino)-1H-pyrazolo[3,4-b]pyridin-5-yl]methyl}-N′-{[3′-(hexahydro-1H-1,4-diazepin-1-ylmethyl)-6-(methyloxy)-3-biphenylyl]methyl}-1,3-benzenedicarboxamide], the melting point lay in the range of 143 to 147 °C. Molecule `CCc1nc2c(cnn2CC)c(NC2CCOCC2)c1CNC(=O)c1cccc(C(=O)NCc2ccc(F)c(-c3cccc(CN4C[C@@H]5C[C@H]4CN5C(=O)OC(C)(C)C)c3)c2)c1` registered a melting point of 119 to 123 °C. The figure for `CCc1nc2c(cnn2CC)c(NC2CCOCC2)c1CNC(=O)c1cccc(C(=O)NCc2cc(Cl)cc(-c3cccc(CN4CCN(C)CC4)c3)c2)c1` [Example 422, N-({5-Chloro-3′-[(4-methyl-1-piperazinyl)methyl]-3-biphenylyl}methyl)-N′-{[1,6-diethyl-4-(tetrahydro-2H-pyran-4-ylamino)-1H-pyrazolo[3,4-b]pyridin-5-yl]methyl}-1,3-benzenedicarboxamide] is 116 to 118 °C; for `CCc1nc2c(cnn2CC)c(NC2CCOCC2)c1CNC(=O)c1cccc(C(=O)NCc2ccc(OC)c(-c3cccc(CN4C[C@@H]5C[C@H]4CN5)c3)c2)c1` [Example 194, N-{[3′-[(1S,4S)-2,5-Diazabicyclo [2.2.1]hept-2-ylmethyl]-6-(methyloxy)-3-biphenylyl]methyl}-N′-{[1,6-diethyl-4-(tetrahydro-2H-pyran-4-ylamino)-1H-pyrazolo[3,4-b]pyridin-5-yl]methyl}-1,3-benzenedicarboxamide] it is 129 to 131 °C. Molecule `CCc1nc2c(cnn2CC)c(NC2CCOCC2)c1CNC(=O)c1cccc(C(=O)NCc2ccc(Cl)c(-c3cccc(CN4C[C@@H]5C[C@H]4CN5)c3)c2)c1` [Example 223, N-({6-Chloro-3′-[(1S,4S)-2,5-diazabicyclo [2.2.1]hept-2-ylmethyl]-3-biphenylyl}methyl)-N′-{[1,6-diethyl-4-(tetrahydro-2H-pyran-4-ylamino)-1H-pyrazolo[3,4-b]pyridin-5-yl]methyl}-1,3-benzenedicarboxamide] returned a melting point of 145 to 149 °C.

`CCc1nc2c(cnn2CC)c(NC2CCOCC2)c1CNC(=O)c1cc(C)cc(C(=O)NCc2ccc(C)c(Br)c2)c1`: the melting point was 117 to 119 °C. For the molecule `CCc1nc2c(cnn2CC)c(NC2CCOCC2)c1CNC(=O)c1cc(C)cc(C(=O)NCc2cccc(-c3cccc(CC4CCN(C)CC4)c3)c2)c1` [Example 425, N-{[1,6-Diethyl-4-(tetrahydro-2H-pyran-4-ylamino)-1H-pyrazolo[3,4-b]pyridin-5-yl]methyl}-5-methyl-N′-({3′-[(1-methyl-4-piperidinyl)methyl]-3-biphenylyl}methyl)-1,3-benzenedicarboxamide], the melting point lay in the range of 119 to 121 °C. For `CCc1nc2c(cnn2CC)c(NC2CCOCC2)c1CNC(=O)c1cc(C)cc(C(=O)NCc2ccc(OC)c(-c3cccc(CC4CCN(C)CC4)c3)c2)c1` [Example 427, N-{[1,6-Diethyl-4-(tetrahydro-2H-pyran-4-ylamino)-1H-pyrazolo[3,4-b]pyridin-5-yl]methyl}-5-methyl-N′-({6-(methyloxy)-3′-[(1-methyl-4-piperidinyl)methyl]-3-biphenylyl}methyl)-1,3-benzenedicarboxamide], the melting point fell in the range of 115 to 117 °C. `CCc1nc2c(cnn2CC)c(NC2CCOCC2)c1CNC(=O)c1cccc(C(=O)NCc2ccc(F)c(-c3cccc(CN4CCNC(=O)C4)c3)c2)c1` [Example 201, N-{[1,6-Diethyl-4-(tetrahydro-2H-pyran-4-ylamino)-1H-pyrazolo[3,4-b]pyridin-5-yl]methyl}-N′-({6-fluoro-3′-[(3-oxo-1-piperazinyl)methyl]-3-biphenylyl}methyl)-1,3-benzenedicarboxamide] registered a melting point of 147 to 150 °C.

Molecule `CCc1nc2c(cnn2CC)c(NC2CCOCC2)c1CNC(=O)c1cccc(C(=O)NCc2ccc(F)c(-c3cccc(CN(C)CCN(C)C)c3)c2)c1` [Example 206, N-{[1,6-Diethyl-4-(tetrahydro-2H-pyran-4-ylamino)-1H-pyrazolo[3,4-b]pyridin-5-yl]methyl}-N′-[(3′-{[[2-(dimethylamino)-ethyl](methyl)amino]methyl}-6-fluoro-3-biphenylyl)methyl]-1,3-benzenedicarboxamide] displayed a melting point of 126 to 129 °C.
